Reference: ChEMBL document CHEMBL1201862, “PubChem BioAssay data set” (2004)
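Briefly, cells in 96-well plates were exposed to five compound concentrations for 48 h, and endpoints were estimated by linear interpolation. Abbreviation: GI50, concentration required for 50% inhibition of growth.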 Active and inactive are the calls of the source. Rule as the data show it: active = GI50 up to about 1.1 µM and inactive = higher.

Key:
Experiment in all cases: NCI anticancer screen, dose series, 48 h
NCI-H460 = test system: NCI-H460
NCI-H522 = test system: NCI-H522
SNB-19 = test system: SNB-19
MDA-MB-231 = test system: MDA-MB-231
UACC-62 = test system: UACC-62
SN12C = test system: SN12C
Hs-578T = test system: Hs-578T
OVCAR-5 = test system: OVCAR-5
786-0 = test system: 786-0
LOX IMVI = test system: LOX IMVI
UO-31 = test system: UO-31
TK-10 = test system: TK-10
DU-145 = test system: DU-145
OVCAR-4 = test system: OVCAR-4
COLO 205 = test system: COLO 205
A549 = test system: A549
NCI-H226 = test system: NCI-H226
BT-549 = test system: BT-549
KM12 = test system: KM12
SK-MEL-2 = test system: SK-MEL-2
MOLT-4 = test system: MOLT-4
T47D = test system: T47D
K562 = test system: K562
CAKI-1 = test system: CAKI-1
SW-620 = test system: SW-620
CCRF-CEM = test system: CCRF-CEM
SF-539 = test system: SF-539
MDA-MB-435 = test system: MDA-MB-435
SK-MEL-28 = test system: SK-MEL-28
HL-60 = test system: HL-60
SF-268 = test system: SF-268
NCI-H23 = test system: NCI-H23
SK-MEL-5 = test system: SK-MEL-5
SR = test system: SR
EKVX = test system: EKVX
U-251 = test system: U-251
Malme-3M = test system: Malme-3M
OVCAR-8 = test system: OVCAR-8
HCT-15 = test system: HCT-15
HT-29 = test system: HT-29
MCF7 = test system: MCF7
ACHN = test system: ACHN
NCI/ADR-RES = test system: NCI/ADR-RES
HOP-92 = test system: HOP-92
UACC-257 = test system: UACC-257
A498 = test system: A498
HCC 2998 = test system: HCC 2998
SK-OV-3 = test system: SK-OV-3
SF-295 = test system: SF-295
HCT-116 = test system: HCT-116
IGROV-1 = test system: IGROV-1
M14 = test system: M14
PC-3 = test system: PC-3
MDA-N = test system: MDA-N
HOP-62 = test system: HOP-62
SNB-75 = test system: SNB-75
OVCAR-3 = test system: OVCAR-3
RPMI-8226 = test system: RPMI-8226
RXF 393 = test system: RXF 393

For `CC1(O)CC23CC(O)C4(O)C(CC(O)C4(C)C)C(C)(O)C2CCC1C3O` (stereo not given), the GI50 (NCI-H460) was > 100 µM (inactive), the GI50 (NCI-H522) was > 100 µM (inactive) and the GI50 (SNB-19) was > 100 µM (inactive). The GI50 (MDA-MB-231) was > 100 µM (inactive), the GI50 (UACC-62) was > 100 µM (inactive) and the GI50 (SN12C) was > 100 µM (inactive). The GI50 (Hs-578T) was > 100 µM (inactive), the GI50 (OVCAR-5) was > 100 µM (inactive) and the GI50 (786-0) was > 100 µM (inactive). For the same compound, the GI50 (LOX IMVI) was > 100 µM (inactive), the GI50 (UO-31) was > 100 µM (inactive) and the GI50 (TK-10) was > 100 µM (inactive). The GI50 (DU-145) was > 100 µM (inactive), the GI50 (OVCAR-4) was > 100 µM (inactive) and the GI50 (COLO 205) was > 100 µM (inactive). The GI50 (A549) was > 100 µM (inactive), the GI50 (NCI-H226) was > 100 µM (inactive) and the GI50 (BT-549) was > 100 µM (inactive). The GI50 (KM12) was > 100 µM (inactive), the GI50 (SK-MEL-2) was > 100 µM (inactive) and the GI50 (MOLT-4) was > 100 µM (inactive). The GI50 (T47D) was > 100 µM (inactive), the GI50 (K562) was > 100 µM (inactive) and the GI50 (CAKI-1) was > 100 µM (inactive). The GI50 (SW-620) was > 100 µM (inactive), the GI50 (CCRF-CEM) was > 100 µM (inactive) and the GI50 (SF-539) was > 100 µM (inactive). For the same compound, the GI50 (MDA-MB-435) was > 100 µM (inactive), the GI50 (SK-MEL-28) was > 100 µM (inactive) and the GI50 (HL-60) was > 100 µM (inactive). For the same compound, the GI50 (SF-268) was > 100 µM (inactive), the GI50 (NCI-H23) was > 100 µM (inactive) and the GI50 (SK-MEL-5) was > 100 µM (inactive). The GI50 (SR) was > 100 µM (inactive), the GI50 (EKVX) was > 100 µM (inactive) and the GI50 (U-251) was > 100 µM (inactive). For the same compound, the GI50 (Malme-3M) was > 100 µM (inactive), the GI50 (OVCAR-8) was > 100 µM (inactive) and the GI50 (HCT-15) was over 100 µM. For the same compound, the GI50 (HT-29) was > 100 µM (inactive), the GI50 (MCF7) was > 100 µM (inactive) and the GI50 (ACHN) was > 100 µM (inactive). The GI50 (NCI/ADR-RES) was > 100 µM (inactive), the GI50 (HOP-92) was > 100 µM (inactive) and the GI50 (UACC-257) was > 100 µM (inactive). For the same compound, the GI50 (A498) was > 100 µM (inactive), the GI50 (HCC 2998) was > 100 µM (inactive) and the GI50 (SK-OV-3) was > 100 µM (inactive). The GI50 (SF-295) was > 100 µM (inactive), the GI50 (HCT-116) was > 100 µM (inactive) and the GI50 (IGROV-1) was > 100 µM (inactive). The GI50 (M14) was > 100 µM (inactive) and the GI50 (PC-3) was > 100 µM (inactive).

`O=c1[nH]c2ccc(CC(=S)N3CCCCC3)cc2s1` was tested, and the GI50 (SNB-19) was > 100 µM (inactive), the GI50 (MDA-MB-231) was > 100 µM (inactive) and the GI50 (UACC-62) was > 100 µM (inactive). For the same compound, the GI50 (OVCAR-5) was > 100 µM (inactive), the GI50 (786-0) was > 100 µM (inactive) and the GI50 (LOX IMVI) was > 100 µM (inactive). The GI50 (TK-10) was > 100 µM (inactive), the GI50 (MDA-N) was > 100 µM (inactive) and the GI50 (DU-145) was > 100 µM (inactive). For the same compound, the GI50 (COLO 205) was > 100 µM (inactive), the GI50 (BT-549) was > 100 µM (inactive) and the GI50 (KM12) was > 100 µM (inactive). For the same compound, the GI50 (SK-MEL-2) was > 100 µM (inactive), the GI50 (MOLT-4) was > 100 µM (inactive) and the GI50 (K562) was > 100 µM (inactive). The GI50 (CAKI-1) was 91.6 µM (inactive), the GI50 (SW-620) was > 100 µM (inactive) and the GI50 (MDA-MB-435) was > 100 µM (inactive). The GI50 (SK-MEL-28) was > 100 µM (inactive), the GI50 (NCI-H23) was > 100 µM (inactive) and the GI50 (SR) was 26.4 µM (inactive). For the same compound, the GI50 (EKVX) was 0.214 µM (active), the GI50 (HOP-62) was 71.9 µM (inactive) and the GI50 (OVCAR-8) was > 100 µM (inactive). The GI50 (HCT-15) was over 100 µM, the GI50 (MCF7) was > 100 µM (inactive) and the GI50 (ACHN) was > 100 µM (inactive). For the same compound, the GI50 (UACC-257) was > 100 µM (inactive), the GI50 (SK-OV-3) was > 100 µM (inactive) and the GI50 (SNB-75) was 0.163 µM (active). For the same compound, the GI50 (SF-295) was > 100 µM (inactive), the GI50 (HCT-116) was > 100 µM (inactive) and the GI50 (OVCAR-3) was > 100 µM (inactive). The GI50 (M14) was > 100 µM (inactive) and the GI50 (PC-3) was > 100 µM (inactive).

For `C/C=C/[C@H]1O[C@@](O)([C@@H](C)[C@H](O)[C@H](C)[C@H]2OC(=O)/C(OC)=C/C(C)=C/[C@@H](C)[C@@H](O)[C@@H](CC)[C@@H](O)[C@H](C)C/C(C)=C/C=C/[C@@H]2OC)C[C@H](OC2CC(O)C(OC(N)=O)C(C)O2)[C@@H]1C` (stereo not given in full), the GI50 (NCI-H460) was < 0.0111 µM (active), the GI50 (NCI-H522) was 0.0399 µM (active) and the GI50 (SNB-19) was 8.22 µM (inactive). For the same compound, the GI50 (MDA-MB-231) was 0.678 µM (active), the GI50 (UACC-62) was 0.0231 µM (active) and the GI50 (SN12C) was 5.65 µM (inactive). For the same compound, the GI50 (Hs-578T) was 12.4 µM (inactive), the GI50 (OVCAR-5) was 11.9 µM (inactive) and the GI50 (786-0) was 0.0183 µM (active). The GI50 (LOX IMVI) was < 0.01 µM (active), the GI50 (UO-31) was 0.0479 µM (active) and the GI50 (TK-10) was 17.3 µM (inactive). The GI50 (DU-145) was 0.914 µM (active), the GI50 (OVCAR-4) was 0.0791 µM (active) and the GI50 (COLO 205) was 0.0334 µM (active). For the same compound, the GI50 (A549) was < 0.0181 µM (active), the GI50 (NCI-H226) was 0.0336 µM (active) and the GI50 (RPMI-8226) was < 0.0157 µM (active). The GI50 (BT-549) was 0.0843 µM (active), the GI50 (KM12) was < 0.0163 µM (active) and the GI50 (SK-MEL-2) was 0.0195 µM (active). The GI50 (MOLT-4) was < 0.01 µM (active), the GI50 (T47D) was 0.0333 µM (active) and the GI50 (K562) was 0.024 µM (active). For the same compound, the GI50 (CAKI-1) was 0.0532 µM (active), the GI50 (SW-620) was < 0.022 µM (active) and the GI50 (CCRF-CEM) was < 0.01 µM (active). For the same compound, the GI50 (SF-539) was 0.0224 µM (active), the GI50 (MDA-MB-435) was 0.0275 µM (active) and the GI50 (SK-MEL-28) was 0.74 µM (active). The GI50 (HL-60) was < 0.01 µM (active), the GI50 (SF-268) was 0.0447 µM (active) and the GI50 (NCI-H23) was 7.13 µM (inactive). For the same compound, the GI50 (SK-MEL-5) was 0.0142 µM (active), the GI50 (SR) was < 0.01 µM (active) and the GI50 (EKVX) was 0.0719 µM (active). The GI50 (U-251) was < 0.0281 µM (active), the GI50 (Malme-3M) was 0.122 µM (active) and the GI50 (HOP-62) was < 0.0249 µM (active). The GI50 (RXF 393) was 8.87 µM (inactive), the GI50 (OVCAR-8) was 0.0474 µM (active) and the GI50 (HCT-15) was 0.0426 µM. The GI50 (HT-29) was < 0.01 µM (active), the GI50 (MCF7) was 0.0293 µM (active) and the GI50 (ACHN) was 0.0286 µM (active). For the same compound, the GI50 (NCI/ADR-RES) was 0.759 µM (active), the GI50 (UACC-257) was 0.0641 µM (active) and the GI50 (A498) was 18.8 µM (inactive). For the same compound, the GI50 (HCC 2998) was 0.0787 µM (active), the GI50 (SK-OV-3) was 12.8 µM (inactive) and the GI50 (SNB-75) was 0.525 µM (active). For the same compound, the GI50 (SF-295) was 0.0248 µM (active), the GI50 (HCT-116) was 0.017 µM (active) and the GI50 (OVCAR-3) was < 0.0181 µM (active). For the same compound, the GI50 (IGROV-1) was 0.0458 µM (active), the GI50 (M14) was < 0.0161 µM (active) and the GI50 (PC-3) was < 0.01 µM (active).
